Among the data in PubChem BioAssay AID256 (DTP/NCI, 2004) are T/C values, retold here.

The structures appear in SMILES notation. Several values for one entry are separate records, joined by “and”; a condition that tells them apart may be missing. Equal entries are not always repeated. Inconclusive results and toxic doses are left out.

In this experiment the test system is CD2F1 mice, L1210 leukemia ip, survival T/C. Description: NCI In Vivo Anticancer Drug Screen. Data for tumor model L1210 Leukemia (intraperitoneal) in CD2F1 (CDF1) mice. The note with it: higher = longer survival. The method in brief: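 In this screen, transplantable tumors were grown in mice given either the compound or its vehicle. Results were expressed as the treated measurement relative to the control measurement.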

Setting [1] is: endpoint: mean survival time, dose: 12.5 mg/kg/injection, schedule: Q01DX005 (ip), vehicle: water.
Where [2] appears, read: endpoint: mean survival time, dose: 25.0 mg/kg/injection, schedule: Q01DX005 (ip), vehicle: water.
Where [3] appears, read: endpoint: mean survival time, dose: 50.0 mg/kg/injection, schedule: Q01DX005 (ip), vehicle: water.
[4] abbreviates: endpoint: mean survival time, dose: 100.0 mg/kg/injection, schedule: Q01DX005 (ip), vehicle: water.
Where [5] appears, read: endpoint: mean survival time, dose: 100.0 mg/kg/injection, schedule: Q01DX009 (ip), vehicle: saline with Tween-80.
Where [6] appears, read: endpoint: mean survival time, dose: 100.0 mg/kg/injection, schedule: Q04DX003 (ip), vehicle: saline with Tween-80.
Where [7] appears, read: endpoint: mean survival time, dose: 200.0 mg/kg/injection, schedule: Q01DX009 (ip), vehicle: saline with Tween-80.
The mark [8] stands for this setting: endpoint: mean survival time, dose: 200.0 mg/kg/injection, schedule: Q04DX003 (ip), vehicle: saline with Tween-80.
The mark [9] stands for this setting: endpoint: mean survival time, dose: 400.0 mg/kg/injection, schedule: Q01DX009 (ip), vehicle: saline with Tween-80.
The mark [10] stands for this setting: endpoint: mean survival time, dose: 400.0 mg/kg/injection, schedule: Q04DX003 (ip), vehicle: saline with Tween-80.
The mark [11] stands for this setting: endpoint: mean survival time, dose: 25.0 mg/kg/injection, schedule: Q04DX003 (ip), vehicle: saline with Tween-80.
Setting [12] is: endpoint: mean survival time, dose: 50.0 mg/kg/injection, schedule: Q04DX003 (ip), vehicle: saline with Tween-80.
[13] abbreviates: endpoint: mean survival time, dose: 25.0 mg/kg/injection, schedule: Q01DX009 (ip), vehicle: saline with Tween-80.
The mark [14] stands for this setting: endpoint: mean survival time, dose: 50.0 mg/kg/injection, schedule: Q01DX009 (ip), vehicle: saline with Tween-80.

Turning to `Cc1nc2c(ncn2C2OC3COP(=O)(O)OC3C2O)c2nccn12` (stereo unspecified), the T/C reads like this: under setting [1], 95 % of control; under setting [2], 100 % of control; under setting [3], 90 % of control; under setting [4], 106 % of control.

As for `CC(=O)NC(C(=O)O)C(C)c1c[nH]c2ccccc12` (stereo unspecified), the T/C under setting [5] was 104 % of control; the T/C under setting [6] was 97 % of control; the T/C under setting [7] is 96 % of control; the T/C under setting [8] was 97 % of control; the T/C under setting [9] was 95 % of control; the T/C under setting [10] is 91 % of control.

Regarding `CC1(C)CCC(C#N)=C1N`, the T/C is 97 % of control (endpoint: mean survival time, dose: 12.5 mg/kg/injection, schedule: Q04DX003 (ip), vehicle: saline with Tween-80); 97 % of control under setting [11]; 91 % of control under setting [12].

Regarding `[I-].[Ni+2].[O-]/N=C/c1ccccn1.[O-]/N=C/c1ccccn1.[O-]/N=C/c1ccccn1`, the T/C (endpoint: mean survival time, dose: 100.0 mg/kg/injection, schedule: Q01DX001 (ip), vehicle: saline) was 106 % of control.

As to `CCNC1=C(C)C(=O)C2=C(C1=O)C(COC(N)=O)C1(O)C3C(CN21)N3C` (stereo unspecified), the T/C runs as follows: (endpoint: mean survival time, dose: 1.5 mg/kg/injection, schedule: Q01DX001 (ip), vehicle: saline) 98 % of control; (endpoint: mean survival time, dose: 3.0 mg/kg/injection, schedule: Q01DX001 (ip), vehicle: saline) 95 % of control; (endpoint: mean survival time, dose: 6.0 mg/kg/injection, schedule: Q01DX001 (ip), vehicle: saline) 101 % of control; (endpoint: mean survival time, dose: 12.0 mg/kg/injection, schedule: Q01DX001 (ip), vehicle: saline) 93 % of control; (endpoint: mean survival time, dose: 24.0 mg/kg/injection, schedule: Q01DX001 (ip), vehicle: saline) 95 % of control; (endpoint: mean survival time, dose: 30.0 mg/kg/injection, schedule: Q01DX001 (ip), vehicle: water) 100 % of control. Further, the T/C (endpoint: mean survival time, dose: 60.0 mg/kg/injection, schedule: Q01DX001 (ip), vehicle: water) is 101 % of control.

As to `Cc1cc(C(O)CNCCCn2c(N3CCOCC3)nc3c2c(=O)n(C)c(=O)n3C)ccc1O` (stereo unspecified), the T/C is 96 % of control under setting [1]; 97 % of control under setting [2]; 97 % of control under setting [3]; 96 % of control under setting [4]; 100 % of control (endpoint: mean survival time, dose: 200.0 mg/kg/injection, schedule: Q01DX005 (ip), vehicle: water).

As to `CO[C@@]12[C@@H]3N[C@@H]3CN1C1=C(C(=O)C(NCCN3CCCC3)=C(C)C1=O)[C@@H]2COC(N)=O`, the T/C is, setting by setting: (endpoint: mean survival time, dose: 0.31 mg/kg/injection, schedule: Q01DX005 (ip), vehicle: water) 101 % of control; (endpoint: mean survival time, dose: 0.62 mg/kg/injection, schedule: Q01DX005 (ip), vehicle: water) 101 % of control; (endpoint: mean survival time, dose: 1.25 mg/kg/injection, schedule: Q01DX005 (ip), vehicle: water) 113 % of control; (endpoint: mean survival time, dose: 1.5 mg/kg/injection, schedule: Q01DX001 (ip), vehicle: water) 100 % of control; (endpoint: mean survival time, dose: 2.5 mg/kg/injection, schedule: Q01DX005 (ip), vehicle: water) 120 % of control and 122 % of control; (endpoint: mean survival time, dose: 3.0 mg/kg/injection, schedule: Q01DX001 (ip), vehicle: water) 94 % of control. For the same molecule, the T/C was 115 % of control (endpoint: mean survival time, dose: 6.0 mg/kg/injection, schedule: Q01DX001 (ip), vehicle: water) and 103 % of control (endpoint: mean survival time, dose: 12.0 mg/kg/injection, schedule: Q01DX001 (ip), vehicle: water).

Turning to `CC(=O)Nn1cnc2c(SCc3ccccc3)ncnc21`, the T/C is 95 % of control (endpoint: mean survival time, dose: 177.0 mg/kg/injection, schedule: Q01DX001 (ip), vehicle: saline); 95 % of control (endpoint: mean survival time, dose: 266.0 mg/kg/injection, schedule: Q01DX001 (ip), vehicle: saline); 97 % of control (endpoint: mean survival time, dose: 400.0 mg/kg/injection, schedule: Q01DX001 (ip), vehicle: saline); 96 % of control (endpoint: mean survival time, dose: 600.0 mg/kg/injection, schedule: Q01DX001 (ip), vehicle: saline).

Consider `CCCC(Sc1nc(N)nc2nc[nH]c12)C(=O)O` (stereo unspecified), for which the T/C under setting [11] is 103 % of control; the T/C under setting [12] was 110 % of control; the T/C under setting [6] is 118 % of control; the T/C (endpoint: mean survival time, dose: 150.0 mg/kg/injection, schedule: Q04DX003 (ip), vehicle: saline with Tween-80) is 151 % of control; the T/C (endpoint: mean survival time, dose: 300.0 mg/kg/injection, schedule: Q04DX003 (ip), vehicle: saline with Tween-80) was 156 % of control; the T/C under setting [10] is 168 % of control.

In the case of `NP(=O)(Oc1ccccc1)Oc1ccccc1`, the T/C was 96 % of control under setting [13] and 90 % of control under setting [6].

As to `CN(C)c1ccc(C(=N)c2ccc(N(C)C)cc2)cc1` (tested in a mixture with another compound), the T/C is, setting by setting: (endpoint: mean survival time, dose: 12.5 mg/kg/injection, schedule: Q01DX009 (ip), vehicle: saline with Tween-80) 98 % of control; under setting [14], 93 % of control.

As for `CCCOC(=O)NCCBr`, the T/C reads like this: under setting [14], 101 % of control; under setting [5], 96 % of control; under setting [7], 93 % of control.

For `O=C1CSC(=S)N1/N=C/c1ccc2c(c1)OCO2`, the T/C is 94 % of control (endpoint: mean survival time, dose: 75.0 mg/kg/injection, schedule: Q01DX001 (ip), vehicle: other); 93 % of control (endpoint: mean survival time, dose: 150.0 mg/kg/injection, schedule: Q01DX001 (ip), vehicle: other); 97 % of control (endpoint: mean survival time, dose: 300.0 mg/kg/injection, schedule: Q01DX001 (ip), vehicle: other).

On to `COc1ccc(Cn2cnc3c(=S)nc[nH]c32)cc1`, for which the T/C is, setting by setting: (endpoint: mean survival time, dose: 100.0 mg/kg/injection, schedule: Q01DX001 (ip), vehicle: Klucel (hydroxypropylcellulose) (HPC)) 91 % of control; (endpoint: mean survival time, dose: 200.0 mg/kg/injection, schedule: Q01DX001 (ip), vehicle: Klucel (hydroxypropylcellulose) (HPC)) 100 % of control; (endpoint: mean survival time, dose: 400.0 mg/kg/injection, schedule: Q01DX001 (ip), vehicle: Klucel (hydroxypropylcellulose) (HPC)) 94 % of control.

Consider `O=C(O)c1c2c(nc3c(Cl)cccc13)-c1ccccc1C2`, for which the T/C is 102 % of control under setting [5] and 107 % of control under setting [7].

For `COc1ccc(NC(=O)Oc2ccccc2-c2ccccc2)cc1`, the T/C was 98 % of control under setting [5], 89 % of control under setting [7] and 89 % of control under setting [9].

As to `CCOC(=O)c1cnc[nH]c1=O`, the T/C is, setting by setting: under setting [6], 104 % of control; under setting [8], 104 % of control; under setting [10], 96 % of control.

With `BrCCOc1ccccc1`, the T/C by setting is: (endpoint: mean survival time, dose: 100.0 mg/kg/injection, schedule: Q04DX003 (ip), vehicle: other) 108 % of control; (endpoint: mean survival time, dose: 200.0 mg/kg/injection, schedule: Q04DX003 (ip), vehicle: other) 97 % of control; (endpoint: mean survival time, dose: 400.0 mg/kg/injection, schedule: Q04DX003 (ip), vehicle: other) 86 % of control.

In the case of `O=C1CCC2(CCCCC2)N1`, the T/C was 107 % of control (endpoint: mean survival time, dose: 1.25 mg/kg/injection, schedule: Q01DX009 (ip), vehicle: saline); 107 % of control (endpoint: mean survival time, dose: 2.5 mg/kg/injection, schedule: Q01DX009 (ip), vehicle: saline); 96 % of control (endpoint: mean survival time, dose: 3.13 mg/kg/injection, schedule: Q01DX009 (ip), vehicle: saline); 103 % of control (endpoint: mean survival time, dose: 5.0 mg/kg/injection, schedule: Q01DX009 (ip), vehicle: saline); 101 % of control (endpoint: mean survival time, dose: 6.25 mg/kg/injection, schedule: Q01DX009 (ip), vehicle: saline); 98 % of control and 101 % of control (endpoint: mean survival time, dose: 12.5 mg/kg/injection, schedule: Q01DX009 (ip), vehicle: saline).

For the molecule `CCCCCC(=O)C(CCCC)C(=O)Nc1ccccc1` (stereo unspecified), the T/C by setting is: under setting [6], 94 % of control; under setting [8], 96 % of control; under setting [10], 91 % of control.

Consider `CC(C)([NH-])C[NH-].O=C(O)CCO.[Pt+2]`, for which the T/C runs as follows: (endpoint: median survival time, dose: 20.0 mg/kg/injection, schedule: Q04DX003 (ip), vehicle: saline) 255 % of control; (endpoint: median survival time, dose: 20.0 mg/kg/injection, schedule: Q04DX003 (ip), vehicle: water) 173 % of control; (endpoint: median survival time, dose: 40.0 mg/kg/injection, schedule: Q04DX003 (ip), vehicle: saline) 232 % of control; (endpoint: median survival time, dose: 40.0 mg/kg/injection, schedule: Q04DX003 (ip), vehicle: water) 170 % of control; (endpoint: median survival time, dose: 80.0 mg/kg/injection, schedule: Q04DX003 (ip), vehicle: saline) 116 % of control; (endpoint: median survival time, dose: 80.0 mg/kg/injection, schedule: Q04DX003 (ip), vehicle: water) 90 % of control.

For the molecule `CCOC(=O)c1ccc(Nc2nnc(-c3ccc(OC)cc3OC)s2)cc1`, the T/C was 94 % of control under setting [13]; 88 % of control under setting [14]; 88 % of control and 91 % of control under setting [5].
